# Assay results taken from patent US6409988B1, “Radiolabeled 1-aryl pyrazoles, the synthesis thereof and the use thereof as pest GABA receptor ligands” (3-Dimensional Pharmaceuticals, Inc., priority 1999, dated 2002).
# Experiments:
# [1] = Chemical stability of the radioligand; format: physicochemical; details: avoids periodic purification steps
# Procedure: (§1) Compound 1 binds to the housefly GABA receptor with high affinity (IC50=8 nM, for displacement of 2.6 nM of ^3H-EBOB) and can be radiolabeled at high specific activity (>70 Ci/mmol). These are two highly desirable requirements for a new radioligand.
# housefly GABA receptor = target: T1, housefly GABA receptor (Musca domestica, UniProt Q75NA5); assay: Displacement of 3H-EBOB from the housefly GABA receptor; format: binding
# T1 sequence (Q75NA5 30-576): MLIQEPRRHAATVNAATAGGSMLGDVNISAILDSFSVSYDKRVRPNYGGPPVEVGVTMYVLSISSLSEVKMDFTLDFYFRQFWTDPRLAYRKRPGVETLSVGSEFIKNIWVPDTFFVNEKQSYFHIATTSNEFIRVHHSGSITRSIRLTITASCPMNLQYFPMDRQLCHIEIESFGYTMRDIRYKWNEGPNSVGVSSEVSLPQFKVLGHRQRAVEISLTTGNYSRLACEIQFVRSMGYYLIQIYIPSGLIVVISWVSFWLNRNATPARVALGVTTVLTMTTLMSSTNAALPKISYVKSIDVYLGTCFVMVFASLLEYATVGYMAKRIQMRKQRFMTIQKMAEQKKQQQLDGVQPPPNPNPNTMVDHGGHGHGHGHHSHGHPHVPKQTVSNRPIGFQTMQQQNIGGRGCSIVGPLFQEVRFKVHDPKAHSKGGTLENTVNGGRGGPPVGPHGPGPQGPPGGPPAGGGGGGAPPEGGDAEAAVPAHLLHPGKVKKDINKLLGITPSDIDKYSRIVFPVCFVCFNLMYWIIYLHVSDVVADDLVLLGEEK
# Procedure: as §1
smiles,measurement,setting,value
"[3H]C([3H])([3H])Sc1nn(-c2c(Cl)cc(C(F)(F)F)cc2Cl)c(N)c1C#N [Compound 1, 4-cyano-1-(2,6-dichloro-4-trifluorophenyl)-3-[^3H3]methylthiopyrazol-5-ylamine]",chemical stability,[1],chemically stable
same,IC50,housefly GABA receptor,8 nM
